SMILES strings stand for the structures. Where a name gives a salt, the structure may show the parent alone.

One experiment addresses T1, human factor XIa (Homo sapiens, UniProt P03951).
T1 construct: purchased Kordia
Nature of the experiment: Measurement of FXIa inhibition (fluorogenic peptide substrate Boc-Glu(OBzl)-Ala-Arg-AMC). In kind it is biochemical. The following applies: factor XIa from Kordia 0.45 nM; 15 min preincubation; 30 min at 22° C. On the procedure:
The factor XIa inhibition of the substances according to the invention is determined using a biochemical test system which utilizes the reaction of a peptidic factor XIa substrate to determine the enzymatic activity of human factor XIa. Here, factor XIa cleaves from the peptic factor XIa substrate the C-terminal aminomethylcoumarin (AMC), the fluorescence of which is measured. The determinations are carried out in microtitre plates.
Test substances are dissolved in dimethyl sulphoxide and serially diluted in dimethyl sulphoxide (3000 μM to 0.0078 μM; resulting final concentrations in the test: 50 μM to 0.00013 μM). In each case 1 μl of the diluted substance solutions is placed into the wells of white microtitre plates from Greiner (384 wells). Subsequently, the following are added successively: 20 μl of assay buffer (50 mmol/l Tris buffer pH 7.4; 100 mmol/l sodium chloride; 5 mmol/l calcium chloride; 0.1% bovine serum albumin) and 20 μl of factor XIa from Kordia (0.45 nM in assay buffer). After 15 min of incubation, the enzyme reaction is started by addition of 20 μl of the factor XIa substrate Boc-Glu(OBzl)-Ala-Arg-AMC dissolved in assay buffer (10 μM in assay buffer) from Bachem, the mixture is incubated at room temperature (22° C.) for 30 min and fluorescence is then measured (excitation: 360 nm, emission: 460 nm). The measured emissions of the test batches with test substance are compared to those of control batches without test substance (only dimethyl sulphoxide instead of test substance in dimethyl sulphoxide), and IC50 values are calculated from the concentration/activity relationships.

For the next experiment, the system named is human and animal plasma. Nature of the experiment: Determination of anticoagulatory activity: activated partial thromboplastin time (aPTT) in plasma. The class given is biochemical. The following applies: C.K. Prest kit, 37° C., 3 minutes incubation, plasma species of Table B not stated. The protocol:
The anticoagulatory activity of the test substances is determined in vitro in human and animal plasma (for example mouse, rat, rabbit, pig and dog plasma). To this end, blood is drawn off in a mixing ratio of sodium citrate/blood of 1:9 using a 0.11 molar sodium citrate solution as receiver. Immediately after the blood has been drawn off, it is mixed thoroughly and centrifuged at about 4000 g for 15 minutes. The supernatant is pipetted off.
The activated partial thromboplastin time (aPTT) is determined in the presence of varying concentrations of test substance or the corresponding solvent using a commercial test kit (C.K. Prest from Diagnostica Stago). The test compounds are incubated with the plasma and the PTT reagent (cephalin, kaolin) at 37° C. for 3 minutes. Coagulation is then started by addition of a 25 mM aqueous calcium chloride solution, and the time when coagulation occurs is determined. The concentration of test substance which brings about a 1.5-fold extension of the aPTT is determined Activity data from this test are listed in Table B below: […]

T1 sequence (P03951 388-625 limits assumed): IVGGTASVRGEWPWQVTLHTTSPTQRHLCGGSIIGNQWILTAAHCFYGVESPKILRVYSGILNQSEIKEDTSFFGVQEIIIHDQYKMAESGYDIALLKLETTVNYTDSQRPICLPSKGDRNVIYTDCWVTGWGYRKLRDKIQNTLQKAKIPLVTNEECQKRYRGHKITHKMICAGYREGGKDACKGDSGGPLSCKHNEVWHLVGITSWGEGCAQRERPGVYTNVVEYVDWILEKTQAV
T1 sequence (P03951 19-387 partner limits assumed): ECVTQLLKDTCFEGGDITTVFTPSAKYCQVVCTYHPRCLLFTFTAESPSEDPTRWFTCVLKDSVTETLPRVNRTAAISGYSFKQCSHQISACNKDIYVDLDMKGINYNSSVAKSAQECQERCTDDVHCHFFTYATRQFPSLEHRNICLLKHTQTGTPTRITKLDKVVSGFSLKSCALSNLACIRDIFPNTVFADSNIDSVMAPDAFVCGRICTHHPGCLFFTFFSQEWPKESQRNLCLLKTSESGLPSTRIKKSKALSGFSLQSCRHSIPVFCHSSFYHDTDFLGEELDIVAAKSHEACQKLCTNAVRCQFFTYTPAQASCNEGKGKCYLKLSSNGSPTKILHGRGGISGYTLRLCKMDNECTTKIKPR

A word on the IC50: it is the concentration that inhibits the measured activity by half. In turn, `Cc1ccc(S(=O)(=O)N(C)C)cc1-c1ccc(C[C@H](NC(=O)[C@H]2CC[C@H](CN)CC2)C(=O)Nc2ccc(-c3nnn[nH]3)cc2)cc1` [Example 1, trans-4-(Aminomethyl)-N-[(2S)-3-[5′-(dimethylsulphamoyl)-2′-methylbiphenyl-4-yl]-1-oxo-1-{[4-(1H-tetrazol-5-yl)phenyl]amino}propan-2-yl]cyclohexanecarboxamide hydrochloride] came in with an IC50 against human factor XIa of 0.5 nM. In addition, the “aPTT (concentration of test substance which brings about a 1.5-fold extension of the aPTT)” value with human and animal plasma was 0.16 µmol/L.
Taken in the same sequence, the figures for `Cc1ccc(C(=O)NC2CCN(C)CC2)cc1-c1ccc(C[C@H](NC(=O)[C@H]2CC[C@H](CN)CC2)C(=O)Nc2ccc(-c3nc(C(F)(F)C(F)(F)C(=O)O)n[nH]3)cc2)cc1` [Example 42, 3-[5-(4-{[(2S)-2-({[trans-4-(Aminomethyl)cyclohexyl]carbonyl}amino)-3-{2′-methyl-5′-[(1-methylpiperidin-4-yl)carbamoyl]biphenyl-4-yl}propanoyl]amino}phenyl)-1H-1,2,4-triazol-3-yl]-2,2,3,3-tetrafluoropropanoic acid hydrochloride] were 6.8 nM and 0.16 µmol/L.
Taken in the same sequence, the figures for `NC[C@H]1CC[C@H](C(=O)N[C@@H](Cc2ccc(-c3cccc(C(=O)NC4CCNCC4)c3)cc2)C(=O)Nc2ccc(-c3nn[nH]n3)cc2)CC1` [Example 13, 4′-[(2S)-2-({[trans-4-(Aminomethyl)cyclohexyl]carbonyl}amino)-3-oxo-3-{[4-(2H-tetrazol-5-yl)phenyl]amino}propyl]-N-(piperidin-4-yl)biphenyl-3-carboxamide hydrochloride] were 17 nM and 0.28 µmol/L.
Taken in the same sequence, the figures for `CCN(CC)CCCNC(=O)c1ccc(C)c(-c2ccc(C[C@H](NC(=O)[C@H]3CC[C@H](CN)CC3)C(=O)Nc3ccc(-c4nn[nH]n4)cc3)cc2)c1` [Example 19, 4′-[(2S)-2-({[trans-4-(Aminomethyl)cyclohexyl]carbonyl}amino)-3-oxo-3-{[4-(2H-tetrazol-5-yl)phenyl]amino}propyl]-N-[3-(diethylamino)propyl]-6-methylbiphenyl-3-carboxamide hydrochloride] were 6.4 nM and 0.26 µmol/L.
`Cc1ccc(C(=O)NC(C)C)cc1-c1ccc(C[C@H](NC(=O)[C@H]2CC[C@H](CN)CC2)C(=O)Nc2ccc(-c3nc(CCC(=O)O)n[nH]3)cc2)cc1` [Example 43, 3-{5-[4-({(2S)-2-({[trans-4-(Aminomethyl)cyclohexyl]carbonyl}amino)-3-[5′-(isopropylcarbamoyl)-2′-methylbiphenyl-4-yl]propanoyl}amino)phenyl]-1H-1,2,4-triazol-3-yl}propanoic acid hydrochloride]: the IC50 against human factor XIa turned out to be 9.7 nM. For the same compound, the “aPTT (concentration of test substance which brings about a 1.5-fold extension of the aPTT)” value in the experiment on human and animal plasma was 0.38 µmol/L.
The matching figures for `Cc1ccc(S(=O)(=O)N(C)C)cc1-c1ccc(C[C@H](NC(=O)[C@H]2CC[C@H](CN)CC2)C(=O)Nc2ccc(-c3nnc(Cl)[nH]3)cc2)cc1` [Example 3, trans-4-(Aminomethyl)-N-{(2S)-1-{[4-(5-chloro-4H-1,2,4-triazol-3-yl)phenyl]amino}-3-[5′-(dimethylsulphamoyl)-2′-methylbiphenyl-4-yl]-1-oxopropan-2-yl}cyclohexanecarboxamide hydrochloride]: 2.8 nM and 0.19 µmol/L.
The matching figures for `Cc1cc(C(=O)NC2CCC(N(C)C)CC2)cc(-c2ccc(C[C@H](NC(=O)[C@H]3CC[C@H](CN)CC3)C(=O)Nc3ccc(-c4nn[nH]n4)cc3)cc2)c1` (stereo partly drawn) [Example 37, 4′-[(2S)-24 {[trans-4-(Aminomethyl)cyclohexyl]carbonyl}amino)-3-oxo-3-{[4-(2H-tetrazol-5-yl)phenyl]amino}propyl]-N-[4-(dimethylamino)cyclohexyl]-5-methylbiphenyl-3-carboxamide hydrochloride]: 7.5 nM and 0.14 µmol/L.
For `Cc1ccc(C(=O)N[C@@H]2CCNC2)cc1-c1ccc(C[C@H](NC(=O)[C@H]2CC[C@H](CN)CC2)C(=O)Nc2ccc(-c3nn[nH]n3)cc2)cc1` [Example 11, 4′-[(2S)-2-({[trans-4-(Aminomethyl)cyclohexyl]carbonyl}amino)-3-oxo-3-{[4-(2H-tetrazol-5-yl)phenyl]amino}propyl]-6-methyl-N-[(3R)-pyrrolidin-3-yl]biphenyl-3-carboxamide hydrochloride], on human factor XIa, the half-maximal inhibitory concentration (IC50) is 6.9 nM. Also, in the experiment on human and animal plasma, the “aPTT (concentration of test substance which brings about a 1.5-fold extension of the aPTT)” value was 0.26 µmol/L.
Consider `CN1CCN(C(=O)c2cccc(-c3ccc(C[C@H](NC(=O)[C@H]4CC[C@H](CN)CC4)C(=O)Nc4ccc(-c5nnn[nH]5)cc4)cc3)c2)CC1` [Example 5, trans-4-(Aminomethyl)-N-[(2S)-3-{3′-[(4-methylpiperazin-1-yl)carbonyl]biphenyl-4-yl}-1-oxo-1-{[4-(1H-tetrazol-5-yl)phenyl]amino}propan-2-yl]cyclohexanecarboxamide hydrochloride], for which, at human factor XIa, 11 nM corresponded to half-maximal inhibition (IC50). In addition, the “aPTT (concentration of test substance which brings about a 1.5-fold extension of the aPTT)” value with human and animal plasma stood at 0.37 µmol/L.
Turning to `Cc1ccc(C(=O)NC2CCNCC2)cc1-c1ccc(C[C@H](NC(=O)[C@H]2CC[C@H](CN)CC2)C(=O)Nc2ccc(-c3nn[nH]n3)cc2)cc1` [Example 9, hydrochloride], half-maximal inhibition against human factor XIa (IC50) required 7.4 nM. In the experiment with human and animal plasma, the “aPTT (concentration of test substance which brings about a 1.5-fold extension of the aPTT)” value turned out to be 0.08 µmol/L.
The matching figures for `Cc1c(F)cc(C(=O)NC2CCNCC2)cc1-c1ccc(C[C@H](NC(=O)[C@H]2CC[C@H](CN)CC2)C(=O)Nc2ccc(-c3nn[nH]n3)cc2)cc1` [Example 31, 4′-[(2S)-2-({[trans-4-(Aminomethyl)cyclohexyl]carbonyl}amino)-3-oxo-3-{[4-(2H-tetrazol-5-yl)phenyl]amino}propyl]-5-fluoro-6-methyl-N-(piperidin-4-yl)biphenyl-3-carboxamide hydrochloride]: 4.5 nM and 0.16 µmol/L.
The matching figures for `COc1ccc(-c2ccc(C[C@H](NC(=O)[C@H]3CC[C@H](CN)CC3)C(=O)Nc3ccc(-c4nc(C(F)(F)C(F)(F)C(=O)O)n[nH]4)cc3)cc2)cc1S(=O)(=O)N1CCOCC1` [Example 44, 3-{5-[4-({(2S)-2-({[trans-4-(Aminomethyl)cyclohexyl]carbonyl}amino)-3-[4′-methoxy-3′-(morpholin-4-ylsulphonyl)biphenyl-4-yl]propanoyl}amino)phenyl]-1H-1,2,4-triazol-3-yl}-2,2,3,3-tetrafluoropropanoic acid hydrochloride]: 2.2 nM and 0.2 µmol/L.
Taken in the same sequence, the figures for `Cc1ccc(N(C)C)cc1-c1ccc(C[C@H](NC(=O)[C@H]2CC[C@H](CN)CC2)C(=O)Nc2ccc(-c3nnn[nH]3)cc2)cc1` [Example 28, trans-4-(Aminomethyl)-N-[(2S)-3-[5′-(dimethylamino)-2′-methylbiphenyl-4-yl]-1-oxo-1-{[4-(1H-tetrazol-5-yl)phenyl]amino}propan-2-yl]cyclohexanecarboxamide hydrochloride] were 1.5 nM and 0.26 µmol/L.
At human factor XIa, `Cc1ccc(C(=O)NC2CCNC(=O)C2)cc1-c1ccc(C[C@H](NC(=O)[C@H]2CC[C@H](CN)CC2)C(=O)Nc2ccc(-c3nn[nH]n3)cc2)cc1` (stereo partly drawn) [Example 36, 4′-[(2S)-2-({[trans-4-(Aminomethyl)cyclohexyl]carbonyl}amino)-3-oxo-3-{[4-(2H-tetrazol-5-yl)phenyl]amino}propyl]-6-methyl-N-(2-oxopiperidin-4-yl)biphenyl-3-carboxamide hydrochloride] came in with a 50% inhibitory concentration (IC50) of 1.9 nM. In the experiment on human and animal plasma, the “aPTT (concentration of test substance which brings about a 1.5-fold extension of the aPTT)” value stood at 0.14 µmol/L.
With `NC[C@H]1CC[C@H](C(=O)N[C@@H](Cc2ccc(-c3cccc(C(=O)N4CCNCC4)c3F)cc2)C(=O)Nc2ccc(-c3nn[nH]n3)cc2)CC1` [Example 18, trans-4-(Aminomethyl)-N-[(2S)-3-[2′-fluoro-3′-(piperazin-1-ylcarbonyl)biphenyl-4-yl]-1-oxo-1-{[4-(2H-tetrazol-5-yl)phenyl]amino}propan-2-yl]cyclohexanecarboxamide hydrochloride], on human factor XIa, it took 16 nM to reach half-maximal inhibition (IC50). In addition, in the experiment with human and animal plasma, the “aPTT (concentration of test substance which brings about a 1.5-fold extension of the aPTT)” value is 0.35 µmol/L.

The record behind these values is patent US20160237067A1, “SUBSTITUTED PHENYLALANINE DERIVATIVES” (BAYER PHARMA AKTIENGESELLSCHAFT, priority 2013, published 2016).
